Assay results from patent publication US7943606B2, “Compositions and methods to control abnormal cell growth” (CanCure Laboratories, LLC, priority 2005, dated 2011).
Where two headings read alike, the source gives them in different places.

Key:
[1] = tested on: T47D cells; assay: Viability of T47D breast cancer cells; format: cell-based, human; conditions: Homo sapiens, T47D, 72 hours, MTT
Experimental: (§1) To quantify cell death, around the time when significant and characteristic morphological changes took place, cells were pulse-labeled for 10 minutes with [^3H]thymidine to measure DNA activity as described elsewhere [Tomono, M. and Kiss, Z. (1995), “Ethanol enhances the stimulatory effects of insulin and insulin-like growth factor-I on DNA synthesis in NIH 3T3 fibroblasts,” Biochem. Biophys. Res. Commun. 208, 63-67]. Also, cells were collected as suspensions using trypsin, an established method in cell biology, followed by re-plating of cells in fresh tissue culture medium. If no viable cells were obtained after one week in culture, it meant that the cells at the time of re-plating were dead. Survival values obtained with untreated cells were considered 100%. For the determination of relative number of viable cells after treatments, in most cases the MTT assay was used. This calorimetric assay is based on the ability of living cells, but not dead cells, to reduce 3-(4,5-dimethyl thiazol-2-yl)-2,5-diphenyltetrazolium bromide [Carmichael, J, De Graff, W. G., Gazdar, A. F., Minna, J. D. and Mitchell, J. B. (1987), “Evaluation of tetrazolium-based semi-automated calorimetric assay: Assessment of chemosensitivity testing,” Cancer Res. 47, 936-942]. For this assay, cells were plated in 96-well plates, and the MTT assay was performed both in untreated and treated cell cultures. The MTT assay also was performed at the start of treatments to allow assessment of proliferation rates in the control and treated cell cultures.
About 40% confluent cultures of T47D cells, cultured in 12-well plates in RPMI 1640 medium supplemented with 0.2 IU bovine insulin and 10% FBS, were either untreated (FIG. 4A), or were treated with 100 μM CCDTHT (CCompound3) for 72 hours (FIG. 4B).
(§2) NIH3T3, T47D, A-431, HT-29, and MEL-28 cells were cultured as indicated earlier. CaOV-3 human ovarian cancer cells were cultured in DMEM containing 10% FBS. ZR-75-1 human estrogen receptor-positive breast cancer cells were maintained in RPMI 1640 medium supplemented with 10% FBS. HTB-157 human fetal fibroblasts, MEL-24 human malignant melanoma cells, Hep G2 human hepatoblastoma cells, and CaCO-2 human colon adenocarcinoma cells were maintained in Eagles's MEM containing 10% FBS. MB-231 human estrogen receptor-negative breast cancer cells were maintained in Leibovitz's L-15 medium supplemented with 10% FBS. Cells were seeded into 96-well plates and treated at ˜70-90% confluency. Two hours prior to treatments the medium was changed for fresh 10% serum medium, and then the cells were incubated for 10 days in the absence (□) or presence of 50 μM CCDTHT ? or 100 μM CCDTHT (▪). The medium was changed and the cells were re-treated on days 3 and 6. The MTT assay was used to determine cell viability on day 10. The data, shown in FIG. 6, are the mean±std. dev. of 8 incubations in one experiment.
(§3) The MRC-5 cell line is derived from normal lung tissue of a […] fetus. MRC-5 cells were maintained and treated in Eagles Medium with Hanks' BSS containing 10% fetal bovine serum. The T47D cells were maintained and treated in RPMI 1640 medium supplemented with 0.2 IU bovine insulin and 10% fetal bovine serum. The CaOV-3 human ovarian cancer cells were cultured in Dulbecco's modified Eagle's medium containing 10% fetal bovine serum. The cells were seeded in 96-well plates either at 10,000 cells per well or 30,000 cells per well to examine the antiproliferative and cytotoxic effects of various CC compounds, respectively. The cells were incubated for 24 hours, then the medium was changed followed by the treatments of cultures 2 hours after the medium change. At this point, cell cultures seeded at 10,000 cells per well and 30,000 cells per well were 25-35% and 80-90% confluent, respectively.

[2] = tested on: CaOV-3 cells; assay: Viability of CaOV-3 ovarian cancer cells (MTT assay); format: cell-based, human; conditions: Homo sapiens, Caov-3, 72 hours, MTT
Experimental: as §1
as §2, with “experiment. (The experiment was repeated twice with similar results).” for “experiment.”
as §3, with “confluent, respectively. Incubations were continued for 72 hours followed by the MTT assay. The data, shown in TABLE 2, indicate the inhibitory concentrations of CC compounds (IC50) required for 50% decrease in the number of viable cells. These numbers are calculated from the mean of 4 incubations in one experiment (the experiment was repeated once with similar results). […]” for “confluent, respectively.”

[3] = Viability of MRC-5 normal lung fibroblasts (MTT assay); format: cell-based; conditions: human
Experimental: as §1
as §3, with “confluent, respectively. Incubations were continued for 72 hours followed by the MTT assay. The data, shown in TABLE 2, indicate the inhibitory concentrations of CC compounds (IC50) required for 50% decrease in the number of viable cells. These numbers are calculated from the mean of 4 incubations in one experiment (the experiment was repeated once with similar results).” for “confluent, respectively.”

[4] = tested on: MRC-5 cells; assay: as above; format: cell-based; conditions: Homo sapiens, MRC5; 10,000 cells per well (25-35% confluent), 72 hours, MTT; read-out: IC50 values, Antiproliferative, MRC-5
Experimental: as §1
as §3, with “confluent, respectively. Incubations were continued for 72 hours followed by the MTT assay. The data, shown in TABLE 2, indicate the inhibitory concentrations of CC compounds (IC50) required for 50% decrease in the number of viable cells. These numbers are calculated from the mean of 4 incubations in one experiment (the experiment was repeated once with similar results).” for “confluent, respectively.”

[5] = tested on: MCF-7 cells; assay: Viability of MCF-7 breast cancer cells; format: cell-based, human; conditions: 2 mM Etn + 100 μM CCDTHT, 72 hours, MTT
Experimental: as §1
About 50% confluent cultures of MCF-7 cells, cultured in 12-well plates in Dulbecco's modified Eagle's medium (DMEM) supplemented with 10% FBS, were either untreated (FIG. 3A), or were treated with 100 μM CCDTHT (CCompound3) for 72 hours (FIG. 3B). […] This experiment was repeated three times with similar results. In some experiments, cells from the CCDTHT-treated cultures were seeded into 96-well plates, and the MTT assay was performed 96 hours later to test for viable cells.
The NIH 3T3 (normal) mouse fibroblast, A431 human epidermoid adenocarcinoma, and MCF-7 human breast cancer cells were cultured in DMEM medium containing 10% FBS. The MEL-28 human melanoma cells were cultured in MEM medium containing 10% FBS. The HT-29 human colon adenocarcinoma cells were cultured in McCoy's 5a medium containing 10% FBS. The A549 human lung carcinoma cells were maintained in Ham's F12K medium containing 10% FBS. Cells were seeded into 96-well plates and treated at ˜70-90% confluency. Two hours before treatments the medium was changed for fresh 10% serum medium, and then the cells were incubated for 72 hours in the presence of 0-200 μM of CCompound1 (●) or CCompound3 (CCDTHT) (▴), as indicated. The MTT assay was used to determine cell viability after treatments. The values, shown in FIGS. 5A-5F and expressed as percent decrease in viability compared to the untreated control cells, are the mean±std. dev. of 8 incubations in one experiment. Similar results were obtained in another experiment.
NIH 3T3, AN3CA, HT-29, MEL-28, and MCF-7 cells were cultured as described earlier. Cells were seeded into 96-well plates; when cells were ˜80-90% confluent, the medium was changed for fresh 10% serum-containing medium, followed by incubations for 72 hours in the absence (□) or presence of 100 μM CCDTHT ? , 2 mM ethanolamine (Etn) ? , or 100 μM CCDTHT+2 mM Etn (▪). The MTT assay was used to determine cell viability. […]

[6] = 10,000 cells per well (25-35% confluent), read-out: IC50 values, Antiproliferative, T47D
[7] = 30,000 cells per well (80-90% confluent), read-out: IC50 values, Cytotoxic, T47D
[8] = 10,000 cells per well (25-35% confluent), read-out: IC50 values, Antiproliferative, CaOV-3
[9] = 30,000 cells per well (80-90% confluent), read-out: IC50 values, Cytotoxic, CaOV-3
[10] = MRC-5 normal lung fibroblasts, 30,000 cells per well (80-90% confluent), 72 hours, MTT, read-out: IC50 values, Cytotoxic, MRC-5

| SMILES | IC50 [1, 6] | IC50 [2, 8] | IC50 [1, 7] | IC50 [2, 9] | IC50 at 72 h [3, 10] | IC50 [4] | IC50 at 72 h [3] | effect of Etn on CCDTHT-induced reduction in cell viability, MCF-7 [5] |
| --- | --- | --- | --- | --- | --- | --- | --- | --- |
| C=CC[N+](C)(C)CC/C=C1/c2ccccc2Sc2ccc(C)cc21 [CCcompound24, N,N-Dimethyl-N-allyl-3-(2-methyl-9H-thioxanthen-9-ylidene)-propane-1-aminium bromide] | 56 µM | 69 µM | 59 µM | 29 µM |  | 113 µM | 207 µM |  |
| C=CC[N+](CC)(CC)CC/C=C1/c2ccccc2Sc2ccc(C)cc21.[Br-] [CCcompound26, N,N-diethyl-N-allyl-3-(2-methyl-9H-thioxanthen-9-ylidene)-propane-1-aminium-bromide] | 11 µM | 57 µM | 8 µM | 59 µM |  | 86 µM | 98 µM |  |
| NCCO [Etn, ethanolamine, reference compound] |  |  |  |  |  |  |  | clearly prevented |

The next lines start with results.

| IC50 [1, 6] | IC50 [2, 8] | SMILES | IC50 [1, 7] | IC50 [2, 9] | IC50 at 72 h [3, 10] | IC50 [4] | IC50 at 72 h [3] | effect of Etn on CCDTHT-induced reduction in cell viability, MCF-7 [5] |
| --- | --- | --- | --- | --- | --- | --- | --- | --- |
| 76 µM | 32 µM | Cc1ccc2c(c1)/C(=C\CC[N+](C)(C)C)c1ccccc1S2 [CCcompound21, N,N,N-trimethyl-3-(2-methyl-9H-thioxanthen-9-ylidene)-propane-1-aminium iodide] | 59 µM | 29 µM | 164 µM | 113 µM |  |  |
| 65 µM | 61 µM | CC[N+](C)(C)CC/C=C1/c2ccccc2Sc2ccc(C)cc21 [CCcompound22, N,N-Dimethyl-N-ethyl-3-(2-methyl-9H-thioxanthen-9-ylidene)-propane-1-aminium iodide] | 65 µM | 36 µM | 215 µM | 140 µM |  |  |
| 48 µM | 14 µM | CC[N+](C)(CC)CC/C=C1/c2ccccc2Sc2ccc(C)cc21 [CCcompound23, N,N-Diethyl-N-methyl-3-(2-methyl-9H-thioxanthen-9-ylidene)-propane-1-aminium iodide] | 38 µM | 32 µM | 163 µM | 139 µM |  |  |
| 18 µM | 47 µM | CC[N+](CC)(CC)CC/C=C1/c2ccccc2Sc2ccc(C)cc21 [CCcompound25, N,N,N-triethyl-3-(2-methyl-9H-thioxanthen-9-ylidene)-propane-1-aminium-iodide] | 39 µM | 66 µM | 123 µM | 118 µM |  |  |
